“And” between values parts separate entries of the source, which are not always exact repeats. Equal values may be shown once. Read-outs that look alike come from different tables or passages of the source.
How the values were obtained:
[1] = target: T1, THERMINATOR™ DNA polymerase (Thermococcus sp., UniProt Q56366, A485L/D141A/E143A); assay: biochemical; design: species or system Thermococcus species 9° N-7
T1 construct: purchased New England Biolabs
Experimental: Natural and modified nucleotides were tested for incorporation efficiency using the “polymerase end point assay” (Wu et al., 2007, which is incorporated herein by reference). This assay examines incorporation efficiency on matched and mismatched template bases. Incorporation efficiency is measured by determining the concentration at which the compound incorporates on half the primer-template complexes (IC50). Titrations of increasing compound concentration were performed to generate curves from which the IC50 can be determined.
(§1) The sequence of the template DNA is selected depending on which compound will be tested. For example, the first interrogation base after the primer in the template sequence is the complement base of the compound when measuring incorporation efficiency, and one of three mismatched bases when measuring mismatch discrimination properties.
(§2) To the annealed reaction, a DNA polymerase (e.g., THERMINATOR™ DNA polymerase, 0.25 units per reaction, New England Biolabs), 1× Thermopol Buffer, and a known concentration of either natural or modified nucleotide are added to each 10 μL reaction and incubated at 75° C. for 10 minutes, cooled on ice, and quenched with 10 μL of stop solution (98% formamide: 10 mM Na2EDTA, pH=8.0, 25 mg/ml Blue Dextran). Stopped reactions are heated to 75° C. for 30 seconds to denature the DNA, and then placed on ice. The extension products are analyzed on a 10% Long Ranger (Lonza) polyacrylamide gel using an ABI model 377 DNA sequencer. Additional details are provided in Example 1, below.
Polymerase Assays. Natural and modified nucleotides were tested for incorporation efficiency using the “polymerase end point assay” (Wu et al., 2007, which is incorporated herein by reference). This assay examines incorporation efficiency on matched and mismatched template bases. Incorporation efficiency is measured by determining the concentration at which the compound incorporates on half the primer-template complexes (IC50). Titrations of increasing compound concentration were performed to generate curves from which the IC50 can be determined.
The assay is performed by first annealing 5 nM of BODIPY-FL labeled primer with 40 nM template DNA in 1× Thermopol Buffer (20 mM Tris-HCl, pH 8.8; 10 mM (NH4)2SO4; 10 mM KCl; 2 mM MgSO4; 0.1% Triton X-100, New England BioLabs).
as §1, with “The temperature cycle to complete primer annealing is 80° C. for 30 seconds, 57° C. for 30 seconds, then cooling to 4° C. The” for “The”
as §2, with “sequencer.” for “sequencer. Additional details are provided in Example 1, below.”

[2] = target: T1, THERMINATOR™ DNA polymerase; assay: termination assay, weighted sum analysis on homopolymer repeat template; assay type: biochemical, Thermococcus species 9° N-7; settings: 1.0 = complete termination after a single incorporation
Experimental: A weighted sum of 1.0 represents complete termination after a single incorporation, while a value greater than 1.0 indicates incorporation beyond the +1 position (e.g. nucleotide read through). […] The assay is performed as described above for the polymerase end-point assay, except that the template used is a homopolymer repeat, thereby allowing for multiple incorporations of a given nucleotide compound.

[3] = concentration at which the compound incorporates on half the primer-template complexes, complement template base, read-out: IC50 for incorporation
[4] = IC50 for incorporation, concentration at which the compound incorporates on half the primer-template complexes, complement template base
[5] = Adj IC50 Conc (nM), adjusted IC50 used to set the concentrations of the termination assay

T1 sequence (Q56366 whole entry D141A/E143A/A485L): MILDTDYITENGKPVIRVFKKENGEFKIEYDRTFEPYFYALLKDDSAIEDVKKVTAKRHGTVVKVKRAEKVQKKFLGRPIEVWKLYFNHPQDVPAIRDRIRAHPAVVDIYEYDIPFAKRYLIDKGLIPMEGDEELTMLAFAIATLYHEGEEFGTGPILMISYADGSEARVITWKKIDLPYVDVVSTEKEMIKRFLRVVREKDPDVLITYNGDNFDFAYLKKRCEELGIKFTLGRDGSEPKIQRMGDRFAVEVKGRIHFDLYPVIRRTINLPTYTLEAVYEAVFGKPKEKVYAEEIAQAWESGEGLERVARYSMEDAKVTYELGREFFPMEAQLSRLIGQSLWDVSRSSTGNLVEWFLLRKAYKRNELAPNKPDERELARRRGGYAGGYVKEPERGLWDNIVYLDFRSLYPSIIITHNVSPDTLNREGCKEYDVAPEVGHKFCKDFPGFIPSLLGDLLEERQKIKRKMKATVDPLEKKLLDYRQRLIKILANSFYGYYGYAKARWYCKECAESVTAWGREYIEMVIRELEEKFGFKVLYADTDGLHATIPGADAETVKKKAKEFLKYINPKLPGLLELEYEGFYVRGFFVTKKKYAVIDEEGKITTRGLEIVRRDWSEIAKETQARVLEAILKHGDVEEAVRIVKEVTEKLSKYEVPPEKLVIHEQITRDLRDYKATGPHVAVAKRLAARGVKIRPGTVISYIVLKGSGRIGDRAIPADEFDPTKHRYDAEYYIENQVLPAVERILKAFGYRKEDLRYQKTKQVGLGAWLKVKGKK

Row | Compound | IC50 [1, 3] | IC50 ([1]; adjusted IC50 used to set the concentrations of the termination assay, read-out: Adj IC50 Conc) | Average Weighted Sum ± SD ([2]; 1x IC50) | Average Weighted Sum ± SD ([2]; 5x IC50) | Average Weighted Sum ± SD ([2]; 25x IC50) | IC50 [1, 4] | IC50 [1, 5]
1 | 5-(α-isopropyl-2-nitrobenzyloxy)methyl-2′-dUTP-5-R6G [6p005] | 15 ± 1 nM |  |  |  |  |  | 
2 | 5-(α-isopropyl-2-nitrobenzyloxy)methyl-2′-dUTP-6-FAM [6p094] | 8.1 ± 0.2 nM |  |  |  |  |  | 
3 | 5-(α-isopropyl-2-nitrobenzyloxy)methyl-2′-dUTP-6-ROX [6p044] | 18 ± 1 nM |  |  |  |  |  | 
4 | 6-ROX labeled 7-{(R)-1-[4-(3-amino-1-propynyl)-2-nitrophenyl]-2-methyl-propyloxy}methyl-7-deaza-2′-deoxyguanosine-5′-triphosphate [6p034] | 7.4 ± 0.1 nM |  |  |  |  |  | 
5 | CC(OCc1cn([C@H]2C[C@H](O)[C@@H](COP(=O)(O)OP(=O)(O)OP(=O)(O)O)O2)c(=O)[nH]c1=O)c1ccccc1[N+](=O)[O-] (mixture of isomers) [2p043, 5-(α-methyl-nitrobenzyl-oxymethyl)-2′-dUTP] | 1.7 ± 0.2 nM | 1.7 nM | 0.53 ± 0.06 | 1.1 ± 0.0 | 1.7±0.1 |  | 
6 | CC(Oc1nc(N)nc2c1ncn2[C@H]1C[C@H](O)[C@@H](COP(=O)(O)OP(=O)(O)OP(=O)(O)O)O1)c1ccccc1[N+](=O)[O-] (mixture of isomers) [2p143, O^6-(α-methyl-2-nitrobenzyl)-2′-dGTP] |  |  |  |  |  | 10 nM | 
7 | CC(C)C(OCc1cn([C@H]2C[C@H](O)[C@@H](COP(=O)(O)OP(=O)(O)OP(=O)(O)O)O2)c(=O)[nH]c1=O)c1ccccc1[N+](=O)[O-] (mixture of isomers) [2p148, 5-(α-isopropyl-2-nitrobenzyloxy)methyl-2′-dUTP] | 2.3 ± 0.1 nM |  | 0.59 ± 0.02 | 0.99 ± 0.01 | 1.0 and 1.0 ± 0.01 |  | 2.1 nM
8 | CC(Nc1ncnc2c1ncn2[C@H]1C[C@H](O)[C@@H](COP(=O)(O)OP(=O)(O)OP(=O)(O)O)O1)c1ccccc1[N+](=O)[O-] (mixture of isomers) [3p006, N^6-(α-methyl-2-nitrobenzyl)-2′-dATP] |  |  |  |  |  | 8.5 ± 1.8 nM | 
9 | CC(C)C(OCc1cn([C@H]2C[C@H](O)[C@@H](COP(=O)(O)OP(=O)(O)OP(=O)(O)O)O2)c(=O)[nH]c1=O)c1ccccc1 (mixture of isomers) [5p111, 5-(α-isopropyl-benzyloxy)methyl-2′-dUTP] |  |  | 0.44 ± 0.02 | 0.96 ± 0.01 | 1.1 and 1.1 ± 0.03 | 0.8 nM | 0.8 nM
10 | CC(C)(C)C(OCc1cn([C@H]2C[C@H](O)[C@@H](COP(=O)(O)OP(=O)(O)OP(=O)(O)O)O2)c(=O)[nH]c1=O)c1ccccc1[N+](=O)[O-] (single isomer, unassigned) [3p075, 5-[(R or S)-1-(2-nitrophenyl)-2,2-dimethyl-1-propyloxy]methyl-2′-deoxyuridine-5′-triphosphate] |  |  |  |  |  | 3 nM | 
11 | CC(C)C(Nc1ncnc2c1ncn2[C@H]1C[C@H](O)[C@@H](COP(=O)(O)OP(=O)(O)OP(=O)(O)O)O1)c1ccccc1[N+](=O)[O-] (single isomer, unassigned) [6p063, N^6-(α-isopropyl-2-nitrobenzyl)-2′-dATP] |  |  |  |  |  | 12 ± 1 nM | 
12 | Nc1nc(OCc2ccccc2[N+](=O)[O-])c2ncn([C@H]3C[C@H](O)[C@@H](COP(=O)(O)OP(=O)(O)OP(=O)(O)O)O3)c2n1 [2p108, O^6-(2-nitrobenzyl)-2′-dGTP] |  |  |  |  |  | 4 ± 0.7 nM | 
13 | CC(C)[C@H](OCc1cn([C@H]2C[C@H](O)[C@@H](COP(=O)(O)OP(=O)(O)OP(=O)(O)O)O2)c(=O)[nH]c1=O)c1ccccc1[N+](=O)[O-] [3p063, 5-[(S)-1-(2-nitrophenyl)-2-methyl-propyloxy]methyl-2′-deoxyuridine-5′-triphosphate] |  |  |  |  |  | 2 nM | 
14 | CC(C)[C@H](OCc1cn([C@H]2C[C@H](O)[C@@H](COP(=O)(O)OP(=O)(O)OP(=O)(O)O)O2)c(=O)nc1N)c1ccccc1[N+](=O)[O-] [3p065, 5-[(S)-1-(2-nitrophenyl)-2-methyl-propyloxy]methyl-2′-deoxycytidine-5′-triphosphate] |  |  |  |  |  | 1.1 ± 0.1 nM | 
15 | Nc1ncnc2c1c(COCc1ccccc1[N+](=O)[O-])cn2[C@H]1C[C@H](O)[C@@H](COP(=O)(O)OP(=O)(O)OP(=O)(O)O)O1 [5p085, 7-(2-nitrobenzyloxy)methyl-7-deaza-2′-deoxyadenosine-5′-triphosphate] |  |  |  |  |  | 3.6 ± 0.3 nM | 
16 | O=c1[nH]c(=O)n([C@H]2C[C@H](O)[C@@H](COP(=O)(O)OP(=O)(O)OP(=O)(O)O)O2)cc1COCc1ccccc1 [5p145, 5-(benzyloxy)methyl-2′-deoxyuridine-5′-triphosphate] |  |  | 0.43 ± 0.1 | 1.3 ± 0.3 | 2.9 and 2.9 ± 0.4 | 1.4 nM | 1.4 nM
17 | Cc1ccccc1COCc1cn([C@H]2C[C@H](O)[C@@H](COP(=O)(O)OP(=O)(O)OP(=O)(O)O)O2)c(=O)[nH]c1=O [5p147, 5-(2-methylbenzyloxy)methyl-2′-deoxyuridine-5′-triphosphate] |  |  | 0.51 ± 0.1 | 1.5 ± 0.3 | 2.6 ± 0.4 | 1.4 nM | 1.4 nM
18 | CC(C)c1ccccc1COCc1cn([C@H]2C[C@H](O)[C@@H](COP(=O)(O)OP(=O)(O)OP(=O)(O)O)O2)c(=O)[nH]c1=O [5p149, 5-(2-isopropylbenzyloxy)methyl-2′-deoxyuridine-5′-triphosphate] |  |  | 0.53 ± 0.1 | 1.3 ± 0.1 | 2.2 ± 0.2 | 1.4 nM | 1.4 nM
19 | O=c1[nH]c(=O)n([C@H]2C[C@H](O)[C@@H](COP(=O)(O)OP(=O)(O)OP(=O)(O)O)O2)cc1COCc1ccccc1-c1ccccc1 [6p010, 5-(2-phenylbenzyloxy)methyl-2′-deoxyuridine-5′-triphosphate] |  |  | 0.46 ± 0.1 | 1.1 ± 0.1 | 1.7 and 1.7 ± 0.3 | 1.4 nM | 1.4 nM
20 | Cc1cccc(C)c1COCc1cn([C@H]2C[C@H](O)[C@@H](COP(=O)(O)OP(=O)(O)OP(=O)(O)O)O2)c(=O)[nH]c1=O [6p015, 5-(2,6-dimethylbenzyloxy)methyl-2′-deoxyuridine-5′-triphosphate] |  |  | 0.56 ± 0.1 | 1.5 ± 0.1 | 2.2 ± 0.1 | 1.4 nM | 1.4 nM
21 | CC(C)(C)c1ccccc1COCc1cn([C@H]2C[C@H](O)[C@@H](COP(=O)(O)OP(=O)(O)OP(=O)(O)O)O2)c(=O)[nH]c1=O [6p024, 5-(2-tert-butylbenzyloxy)methyl-2′-deoxyuridine-5′-triphosphate] |  |  | 0.44 ± 0.1 | 1.2 ± 0.1 | 1.9 ± 0.1 | 0.7 nM | 0.7 nM
22 | Nc1ccn([C@H]2C[C@H](O)[C@@H](COP(=O)(O)OP(=O)(O)OP(=O)(O)O)O2)c(=O)n1 [dCTP, reference compound] | 3 ± 0.6 nM |  |  |  |  |  | 
23 | C^7-(α-isopropyl-2-nitrobenzyloxy)methyl-2′-dATP-6-CR110 [5p130-LP2] | 15 ± 3 nM |  |  |  |  |  | 
